# Reference: patent US12391701B2, “Chromene-based compounds, methods and uses thereof” (University of Minho, priority 2019, dated 2025)
# Test system: TNBC cell line MDA-MB-231
# Test: Orthotopic breast cancer xenograft in NSG mice
# Type: in vivo
# Experimental: In an embodiment, the in vivo therapeutic efficacy of compound MC408 was analysed using the mouse model. […] MDA-MB-231 cells were injected into the mammary fat pad of NSG mice (n=6 or 7 per group). Treatment was administered 3 days post-implantation for one week. NT=Vehicle; Dose 1=3 mg/kg; Dose 2=10 mg/kg; Dose 3=50 mg/kg. *, p<0.05; **, p<0.01; ****, p<0.0001 (compared to NT group; two-way ANOVA post-hoc Tukey's test or unpaired t-test with Welch's correction).
# In an embodiment, NSG (NOD Scid Gamma) female mice (3-6 months) were injected with a mixture of 0.6×10^6 MDA-MB-231 breast cancer cells and matrigel (ratio 1:1) in the mammary fat pad. Mice were randomly assigned to treatment groups (at least 6 mice/group), which was started 3 days post-implantation using 3 independent doses of compound MC408 (dose 1=3 mg/kg, dose 2=10 mg/kg, and dose 3=50 mg/kg) or vehicle (PBS 1× and Matrigel, ratio 1:1), and was administered daily for 7 days. Mice were maintained under standard laboratory conditions. Animal tumor size (calculated by measuring the two largest sides and applying the formula: v=3.14×L1×L1×L2/6; being L1 the largest side, and L2 the other one) was measured and recorded regularly. At day 47 post-implantation, animals were sacrificed and tumors were excised. All animal procedures were conducted in accordance with the guidelines for the care and use of laboratory animals (European Directive 2010/63/EU).
# [1] = 3, 10, 50 mg/kg daily for 7 days, dose-dependent
smiles,measurement,setting,value
"COc1cccc2c1Oc1nc(-c3ccc(Br)cc3)[nH]c1C2 [MC408, 2-(4-bromophenyl)-5-methoxy-3,9-dihydrochromeno[2,3-d]imidazoles]",tumor volume,[1],significantly decreased
same,tumor weight,[1],significantly decreased
same,reduction of tumor volume comparing to the vehicle group,dose of 50 mg/kg,more than 40%
same,reduction of tumor weight comparing to the vehicle group,dose of 50 mg/kg,more than 40%
same,weight loss and other side effects,"tested treatment regimen, whole experiment",no weight loss nor other side effects
